What was measured:
[1] = test system: Nav1.7 null mutant human; assay: Human processing of tonic radiant heat under naloxone (ratings, EEG); assay type: in vivo
Procedure: (§1) A Nav1.7 loss of function pain-free […] ([…]) was tested under baseline, saline, and naloxone (6 mg) bolus and 0.1 mg/minute infusion treatment. The forearm was stimulated with radiant heat (CO2 lasers).
We delivered tonic stimuli, at the constant temperature of 42, 45, and 48° C. for 20 sec. ML rated online fluctuations in perceived intensity on a visual analog scale. Identical stimuli were rated higher after administration of naloxone in comparison to both the baseline and saline conditions.
Furthermore, we measured the electroencephalogram (EEG) responses induced by tonic radiant heat stimulation: in other words, we looked at the effect of the nociceptive stimulation on brain rhythms.
(§2) Tonic radiant heat was administered over 25 seconds, while the participants rated online the intensity of the heat on a visual analogue scale. The results are depicted in FIG. 11B.

[2] = test system: Nav1.7 loss of function pain-free; assay: Human radiant heat detection thresholds (warmth, pinprick) under naloxone; assay type: in vivo; settings: naloxone 6 mg bolus and 0.1 mg/minute infusion
Procedure: as §1
Warmth threshold reflects activation of unmyelinated C-fibres, while pinprick threshold is mediated by small-myelinated A-delta fibres (LaMotte et al 1978). Detection thresholds were assessed by slowly increasing the temperature of the stimulus (rate 1 deg/sec), after a neutral baseline of variable length (5-10 seconds). The participant was asked to press a button, to stop the stimulus as soon it was detected as warm or pinprick. At baseline, ML perceived only 1 of the 6 stimulus ramps. All the stimuli were detected in the subsequent saline and naloxone sessions.

[3] = test system: Nav1.7 loss of function pain-free; assay: Tactile sensitivity under naloxone; assay type: in vivo, human; settings: baseline, saline and naloxone conditions
[4] = test system: Nav1.7 null mutant human; assay: Human processing of phasic radiant heat (laser pulses) under naloxone; assay type: in vivo
Procedure: as §1
Laser pulses of the same energy (fluency 0.6 j/mm^2) were given to the forearm. The energy used typically evokes a sensation of sharp pinprick pain in healthy volunteers. […] However, naloxone enhanced the detection rate of laser pulses to 80%. ML felt 37.5% of the detected stimuli as pinprick, while the other sensations were described as a slow heat, or warmth. Ratings were low (mean 6.1, range 0.5-15) in a perceived intensity scale ranging from 0-100.
(§3) We evaluated the probability of detecting 9-ms radiant heat pulses in a Nav1.7 null mutant human patient and in three age-matched, healthy human controls. Radiant heat was used to selectively stimulate intra-epidermal free-nerve endings, without touch. The results are depicted in FIG. 11A.

[5] = test system: Nav1.7 null mutant mice; assay: Hargreaves test after naloxone in Nav1.7 null mutant mice; assay type: in vivo; settings: 2 mg/kg naloxone intraperitoneal; Nav1.7 Advill tissue-specific null mutant mice
Procedure: The analgesia found in Nav1.7 null mutant mice was measured with the Hargreaves apparatus, which is a measure of acute thermal pain (Minett et al. 2011, Minett et al. 2012).
(§4) Thermal nociceptive thresholds were measured using the paw-withdrawal latency according to the method described by Hargreaves et al. (1988), with minor modifications (Minett et al. 2011). Briefly, mice were left to acclimatise within an IITC Hargreaves stand for at least 1 hour. Three withdrawal responses were measured per animal. The mice were then left to resettle for at least 30 minutes before the drug treatment.
(§5) Mice received intraperitoneal injections of either 2 mg/kg naloxone or the equivalent volume of vehicle.

[6] = test system: healthy human controls; assay: Radiant heat stimuli under naloxone in healthy controls; assay type: in vivo; settings: healthy patients
Procedure: as §3, §2

[7] = test system: normal mice; assay: Hargreaves test after naloxone in normal mice; assay type: in vivo; settings: 2 mg/kg naloxone intraperitoneal
Procedure: as §4, §5

[8] = molecular target: T1, Nav1.7 (Homo sapiens, UniProt Q15858); settings: Escoubas et al. 2006, Bosmans et al. 2005; cited from earlier work
[9] = test system: murine acute thermal pain model; assay: Hargreaves test, murine acute thermal pain model, intraplantar drug treatment; settings: 1 μg of each drug, 20 μl intraplantar injection, compared with control mice
Procedure: (§6) Mice received 20 μl intraplantar injections of either; • 1 μg Phlotoxin-1, • 1 μg Buprenorphine, • combined 1 μg Phlotoxin-1 and 1 μg Buprenorphine • or vehicle.

[10] = test system: inflammatory hyperalgesia in a murine thermal pain model; assay: Complete Freund's Adjuvant thermal hyperalgesia, Hargreaves test (Example 2); assay type: in vivo, mice; settings: intraplantar 1 microgram each; three days post CFA
Procedure: Baseline thermal thresholds were recorded for each animal before 20 μl Complete Freund's Adjuvant (Sigma) was injected subcutaneously into the plantar aspect of a hind paw using a Hamilton syringe and 30 G needle. Three days post Complete Freund's Adjuvant injections thermal threshold were measured before to drug treatment.
as §6

[11] = molecular target: T1, Nav1.7; assay: Whole cell voltage clamp of Nav1.7 activity in transfected HEK293 cell line; assay type: cell-based; parameters: expressed in transfected cells; host or cells: HEK293; settings: 0.25 μM, HEK293 cell line transfected with human Nav1.7
Procedure: Specifically, HEK293 (ATCC) cells are transfected with Nav1.7 or other sodium channel cDNA constructs in a vector co-expressing a fluorescent marker protein using lipofectamine 2000 or other transfection method and plated onto poly-d-lysine coated coverslips. All recordings are done 24-72 hours after transfection
Whole-cell voltage clamp recordings are performed using an Axopatch 200 B amplifier at room temperature using standard techniques. Extracellular solution comprised (mM) NaCl 145, KCl 4, CaCl2 1.8, MgCl2 1, HEPES 10, (pH 7.35 with NaOH); intracellular (mM) CsCl 150, EGTA 10, HEPES 10, (pH 7.35 with CsOH). […] Tau of inactivation was measured by fitting a standard exponential function to the decaying current and persistent current was determined by measuring the current 20 ms after the start of the voltage step and expressing it as a percentage of the transient current in the same step. To assess voltage dependence of activation current-voltage families were obtained and peak sodium currents measured at each voltage. Channel conductance was calculated using the formula GNa=I/(V−Vrev) where GNa is sodium conductance, I is peak current, V is the voltage step and Vrev is the measured reversal potential which was determined for each cell by fitting a straight line through the linear portion of the current-voltage relationship. […]

[12] = molecular target: T1, Nav1.7; settings: Yang et al. 2013; read-out: IC50 for inhibition of Nav1.7; cited from earlier work
[13] = scale ranging from 0-100, naloxone

T1 sequence (Q15858 whole entry): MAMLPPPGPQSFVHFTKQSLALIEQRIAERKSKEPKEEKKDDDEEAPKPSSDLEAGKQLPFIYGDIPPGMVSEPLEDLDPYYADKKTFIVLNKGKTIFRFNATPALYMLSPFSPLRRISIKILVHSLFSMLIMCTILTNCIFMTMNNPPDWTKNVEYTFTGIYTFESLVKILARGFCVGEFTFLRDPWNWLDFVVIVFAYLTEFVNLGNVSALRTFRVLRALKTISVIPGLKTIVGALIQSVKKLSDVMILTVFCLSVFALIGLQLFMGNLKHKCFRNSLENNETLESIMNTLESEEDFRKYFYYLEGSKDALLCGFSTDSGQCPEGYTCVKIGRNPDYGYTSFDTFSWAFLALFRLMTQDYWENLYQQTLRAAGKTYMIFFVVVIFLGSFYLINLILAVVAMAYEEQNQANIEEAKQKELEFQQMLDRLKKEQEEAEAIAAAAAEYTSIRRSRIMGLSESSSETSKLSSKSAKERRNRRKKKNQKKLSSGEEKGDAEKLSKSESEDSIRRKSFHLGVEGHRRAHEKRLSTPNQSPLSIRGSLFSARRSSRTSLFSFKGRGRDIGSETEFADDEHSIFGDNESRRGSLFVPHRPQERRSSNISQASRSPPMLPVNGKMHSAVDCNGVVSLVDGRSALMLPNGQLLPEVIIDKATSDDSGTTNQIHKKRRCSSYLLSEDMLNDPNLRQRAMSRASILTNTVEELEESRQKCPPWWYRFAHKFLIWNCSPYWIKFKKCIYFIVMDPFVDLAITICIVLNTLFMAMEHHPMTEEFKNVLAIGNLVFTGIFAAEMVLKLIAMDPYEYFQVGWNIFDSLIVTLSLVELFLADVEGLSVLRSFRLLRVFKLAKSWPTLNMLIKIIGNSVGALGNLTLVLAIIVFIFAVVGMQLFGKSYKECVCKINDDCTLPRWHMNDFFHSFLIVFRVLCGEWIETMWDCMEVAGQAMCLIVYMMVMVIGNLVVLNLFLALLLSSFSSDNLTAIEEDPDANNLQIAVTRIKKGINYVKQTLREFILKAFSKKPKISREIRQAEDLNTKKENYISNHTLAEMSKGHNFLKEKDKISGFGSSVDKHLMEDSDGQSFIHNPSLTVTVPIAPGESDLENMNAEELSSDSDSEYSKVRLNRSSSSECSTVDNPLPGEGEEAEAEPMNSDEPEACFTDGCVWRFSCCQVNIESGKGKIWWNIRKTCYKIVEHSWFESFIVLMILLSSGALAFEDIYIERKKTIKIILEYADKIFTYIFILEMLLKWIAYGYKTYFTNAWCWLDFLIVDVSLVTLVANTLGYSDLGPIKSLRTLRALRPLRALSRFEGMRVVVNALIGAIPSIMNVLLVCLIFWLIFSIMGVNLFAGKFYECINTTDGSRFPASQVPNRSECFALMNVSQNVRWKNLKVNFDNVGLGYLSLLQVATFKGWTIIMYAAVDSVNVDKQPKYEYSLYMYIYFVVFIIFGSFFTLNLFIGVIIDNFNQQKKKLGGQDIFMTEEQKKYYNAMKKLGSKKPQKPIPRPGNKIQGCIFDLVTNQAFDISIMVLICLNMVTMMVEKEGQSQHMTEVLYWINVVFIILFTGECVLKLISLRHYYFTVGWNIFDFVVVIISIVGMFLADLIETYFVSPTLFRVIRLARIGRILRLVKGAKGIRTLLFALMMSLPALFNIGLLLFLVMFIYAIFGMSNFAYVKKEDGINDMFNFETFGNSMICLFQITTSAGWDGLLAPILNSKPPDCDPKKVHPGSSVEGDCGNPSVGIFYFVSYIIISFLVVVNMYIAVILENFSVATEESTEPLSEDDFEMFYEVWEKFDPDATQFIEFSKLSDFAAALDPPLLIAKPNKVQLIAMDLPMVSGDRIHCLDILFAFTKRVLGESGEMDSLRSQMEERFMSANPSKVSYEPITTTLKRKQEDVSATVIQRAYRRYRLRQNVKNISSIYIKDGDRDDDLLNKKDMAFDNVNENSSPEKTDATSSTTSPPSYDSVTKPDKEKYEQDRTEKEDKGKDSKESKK

Compound: C=CCN1CC[C@]23c4c5ccc(O)c4O[C@H]2C(=O)CC[C@@]3(O)[C@H]1C5 [naloxone]
- perceived intensity rating of tonic stimuli (visual analog scale) versus baseline and saline ([1]; 42, 45 and 48° C. for 20 sec, naloxone): rated higher
- EEG alpha and beta power during tonic radiant heat ([1]; naloxone): reduced
- EEG low and high gamma induced oscillations relative to baseline and saline ([1]; naloxone): enhancement
- intensity ratings of tonic radiant heat on visual analogue scale (Example 14) ([1]; tonic radiant heat over 25 seconds, Nav1.7 null human): strongly increased
- trials in which pinprick stimuli were reported "surprisingly uncomfortable" [2]: 66%
- reduction of pinprick detection thresholds relative to saline ([2]; forearm radiant heat): 1.7 °C
- reduction of warmth detection thresholds relative to saline ([2]; forearm radiant heat): 7 °C
- tactile sensitivity [3]: remained unchanged
- probability of detecting 9-ms radiant heat pulses ([4]; bolus of 6 mg naloxone followed by infusion at 0.1 mg/minute, Nav1.7 null mutant): 80%
- detection rate of laser pulses ([4]; fluency 0.6 j/mm2, forearm, naloxone, none perceived at baseline and saline): 80%
- detected stimuli felt as pinprick ([4]; naloxone): 37.5%
- perceived intensity rating of laser pulses, mean [4, 13]: 6.1
- perceived intensity rating of laser pulses, range [4, 13]: 0.5-15
- effect on the analgesia of Nav1.7 null mutant mice, Hargreaves test [5]: partially reverses
- sensitisation to noxious stimuli (phasic and tonic radiant heat) [6]: no effect
- effect on pain thresholds, Hargreaves test [7]: does not alter pain thresholds

Compound: Phlotoxin-1
- selective affinity for Nav1.7 compared to other expressed sodium channels [8]: sub-micromolar
- analgesia in the Hargreaves test (paw-withdrawal latency) [9]: no analgesia
- effect on inflammatory (CFA) thermal hyperalgesia, Hargreaves test [10]: much lesser effects
- inhibition of functional Nav1.7 voltage-gated channel activity [11]: completely inhibits

Compound: μ-SLPTX-Ssm6a
- IC50 [12]: ~25 nM

— US20160339099A1, “SYNERGISTIC COMBINATION OF ANALGESIC DRUGS” (priority 2013, published 2016)
